Values quoted from earlier work, collected in patent US20260167972A1, “AMINO ACID DERIVATIVES AS NOVEL DELIVERY AGENTS FOR FUNCTIONAL DELIVERY OF OLIGONUCLEOTIDES” (University of Rochester, priority 2022, published 2026).
“Also recorded” adds a separate entry of the source.

Test system: human A549 lung adenocarincoma cells
Details: cyclic peptide complexed with Rh-siRNA; compared with naked Rh-siRNA; cited from earlier work

Substance | Rh-siRNA cellular/cytosolic delivery
Ac-C(FKFE)2CG-NH2 | improved Rh-siRNA cellular delivery compared with naked Rh-siRNA
Ac-C(WR)4CG-NH2 | improved Rh-siRNA cellular delivery compared with naked Rh-siRNA; also recorded: significantly enhanced cytosolic delivery of Rh-siRNA
